This is an account of results in patent US20110224231A1, “Novel Lactams as Beta Secretase Inhibitors” (Pfizer Inc., priority 2008, published 2011).

Where a name gives a salt, the structure may show the parent alone.

This experiment concerns the target T1, soluble human BACE (Homo sapiens, UniProt P56817).
T1 construct: cells secreting human recombinant soluble BACE; made in house; conditioned medium
Put plainly: BACE activity Cell Free Assay (ELISA of cleaved synthetic APP substrate). It is filed as biochemical. On the procedure:
A synthetic APP substrate that can be cleaved by beta˜secretase and having N-terminal biotin is used to assay beta-secretase activity in the presence or absence of the inhibitory compounds. […] The substrate and test compounds are added to 384 well polypropylene plates. The reaction is initiated by the addition of soluble BACE enzyme to a final volume of 12.5 μL per well. The final assay conditions are: 0.001˜300 μM compound inhibitor, 0.05M sodium acetate (pH 4.5), 3 μM substrate, soluble human BACE, and 2% DMSO. Concentrated conditioned media from cells secreting human recombinant soluble BACE was titrated to provide a source of BACE enzyme. The cell media can be used as either a crude BACE prep or BACE can be purified using any number of techniques, including immobilized BACE inhibitor purification columns. The assay mixture is incubated for 1 hour at 37° C., and the reaction is quenched by the addition of an equal volume of 0.1M Tris, pH 8. Half of the quenched mix is incubated on clear streptavidin coated 384 well polystyrene plates for 1 hour. An ELISA is then performed using an in˜house antibody that specifically recognizes the new C˜terminus created after cleavage by BACE. […] (These polyclonal antibodies were raised in rabbits by immunizing with antigen comprised of six amino acid residues present at the carboxy terminus of the wild-type soluble APPbeta sequence (NH2-ISEVKM-COOH) or seven amino acid residues present at the carboxy terminus of the Swedish mutation at the beta cleavage site (NH2-EISEVNL˜COOH) conjugated to keyhole limpet hemacyanin by methods known to those skilled in the art.) A secondary anti˜species Horseradish Peroxidase (HRP) conjugated antibody is then utilized. The readout, following assay development with TMB substrate and quenching with 0.09M sulfuric acid, is absorbance at 450 nm.
On the technique in general: ELISA stands for enzyme-linked immunosorbent assay.

T1 sequence (P56817 46-457 limits assumed): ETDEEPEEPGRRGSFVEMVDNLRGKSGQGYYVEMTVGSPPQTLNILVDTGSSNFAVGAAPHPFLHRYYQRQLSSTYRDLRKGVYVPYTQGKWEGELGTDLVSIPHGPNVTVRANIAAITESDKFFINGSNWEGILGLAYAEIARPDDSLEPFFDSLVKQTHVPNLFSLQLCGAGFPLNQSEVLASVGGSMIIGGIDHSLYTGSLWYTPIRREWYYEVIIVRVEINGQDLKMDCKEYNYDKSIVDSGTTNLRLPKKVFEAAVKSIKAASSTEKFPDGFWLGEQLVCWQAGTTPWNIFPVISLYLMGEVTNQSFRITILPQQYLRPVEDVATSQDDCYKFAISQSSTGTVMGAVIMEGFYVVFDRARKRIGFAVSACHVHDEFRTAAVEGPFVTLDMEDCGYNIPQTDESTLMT

Turning to `COc1ccc(Oc2cccc(CN3CCC4(CCC(=O)N4c4cccc(F)c4)CC3C)c2)cc1` (racemic) [Example 35, Racemic (5R,7S),(5S,7R)-1-(3-fluorophenyl)-8-[3-(4-methoxyphenoxy)benzyl]-7-methyl-1,8-diazaspiro[4.5]decan-2-one], the concentration for half-maximal inhibition (IC50) – broadly, the concentration that inhibits the measured activity by half – lay within 10 to 100 µM.

Regarding `C[C@H]1C[C@@]2(C=CC(=O)N2c2cnccn2)CCN1Cc1scnc1CC1CCC1` [#131, (5R,7S)-8-([4-(cyclobutylmethyl)-1,3-thiazol-5-yl]methyl)-7-methyl-1-pyrazin-2-yl-1,8-diazaspiro[4.5]dec-3-en-2-one], the 50% inhibitory concentration (IC50) is 1 to 10 µM.

As to `Cc1ccccc1-c1cc(CN2CC[C@]3(CCC(=O)N3c3cccc(F)c3)C[C@@H]2C)ccc1O` [#215], the IC50 is 0.001 to 1 µM. For `CC1CC2(CCC(=O)N2c2cccc(F)c2)CCN1Cc1cccc(-n2cccn2)c1` (racemic) [Example 79, Racemic (5R,7S),(5S,7R)-1-(3-fluorophenyl)-7-methyl-8-[3-(1H-pyrazol-1-yl)benzyl]-1,8-diazaspiro[4.5]decan-2-one], the 50% inhibitory concentration (IC50) was 100 to 300 µM. `CC1CC2(C=CC(=O)N2c2cccc(F)c2)CCN1Cc1ccnn1CC(F)(F)F` (racemic) [Example 60, Racemic (5R,7S),(5S,7R)-1-(3-fluorophenyl)-7-methyl-8-{[1-(2,2,2-trifluoroethyl)-1H-pyrazol-5-yl]methyl}-1,8-diazaspiro[4.5]dec-3-en-2-one] returned an IC50 of 10 to 100 µM. The compound `COc1cccc(-c2csc(CN3CCC4(C=CC(=O)N4c4cccc(F)c4)CC3C)n2)c1` (racemic) [Example 72, Racemic (5R,7S),(5S,7R)-1-(3-fluorophenyl)-8-{[4-(3-methoxyphenyl)-1,3-thiazol-2-yl]methyl}-7-methyl-1,8-diazaspiro[4.5]dec-3-en-2-one] yielded an IC50 of 10 to 100 µM.

Regarding `CC1CC2(CCC(=O)N2c2cccc(F)c2)CCN1Cc1ccnn1CC(F)(F)F` (racemic) [Example 77, Racemic (5R,7S),(5S,7R)-1-(3-fluorophenyl)-7-methyl-8-{[1-(2,2,2-trifluoroethyl)-1H-pyrazol-5-yl]methyl}-1,8-diazaspiro[4.5]decan-2-one], the 50% inhibitory concentration (IC50) lay within 100 to 300 µM. The compound `CC1CC2(CCC(=O)N2c2cccc(F)c2)CCN1Cc1c[nH]c2cc(F)ccc12` (racemic) [Example 74, Racemic (5R,7S),(5S,7R)-8-[(6-fluoro-1H-indol-3-yl)methyl]-1-(3-fluorophenyl)-7-methyl-1,8-diazaspiro[4.5]decan-2-one] showed a concentration for half-maximal inhibition (IC50) of 100 to 300 µM. `CC(C)Oc1cccc(CN2CC[C@]3(CCC(=O)N3c3cccc(F)c3)C[C@@H]2C)c1` (racemic) [Example 45, Racemic (5R,7S),(5S,7R)-1-(3-fluorophenyl)-8-(3-isopropoxybenzyl)-7-methyl-1,8-diazaspiro[4.5]decan-2-one] returned a concentration for half-maximal inhibition (IC50) of 10 to 100 µM. `CC(C)Oc1cccc(CN2CC[C@]3(CC(F)C(=O)N3c3cccc(F)c3)C[C@@H]2C)c1` (mixture of isomers) [Example 90, Racemic (5R,7S)(5S,7R)-3-fluoro-1-(3-fluorophenyl)-8-(3-isopropoxybenzyl)-7˜methyl˜1,8˜diazaspiro[4.5]decan˜2˜one, formate salt] gave a half-maximal inhibitory concentration (IC50) of 10 to 100 µM. In the case of `CCCn1nccc1CN1CCC2(C=CC(=O)N2c2cccc(F)c2)CC1C` (racemic) [Example 10, Racemic (5R,7S),(5S,7R)-1-(3-fluorophenyl)-7-methyl-8-[(1-propyl-1H-pyrazol-5-yl)methyl]-1,8-diazaspiro[4.5]dec-3-en-2-one] it was 10 to 100 µM; in that of `CC1CC2(C=CC(=O)N2c2cccc(F)c2)CCN1Cc1cccc(COc2cc(F)cc(F)c2)c1` (racemic) [Example 5, Racemic (5R,7S),(5S,7R)-8-{3-[(3,5-difluorophenoxy)methyl]benzyl}-1-(3-fluorophenyl)-7-methyl-1,8-diazaspiro[4.5]dec-3-en-2-one], 10 to 100 µM. With `CC(C)Oc1cccc(CN2CC[C@]3(C=CC(=O)N3c3ccncc3)C[C@@H]2C)c1` [#102], the IC50 is 100 to 300 µM. Consider `CC1=C[C@]2(CCN(Cc3ccc(O)c(OC(C)C)c3)[C@@H](C)C2)N(c2cccc(F)c2)C1=O` [Example @98, (5R,7S)-1-(3-Fluorophenyl)-8-(4-hydroxy-3-isopropoxybenzyl)-3,7-dimethyl-1,8-diazaspiro[4.5]dec-3-en-2-one, hydrochloride salt], for which the IC50 lay in the range of 0.001 to 1 µM. `CC1CC2(C=CC(=O)N2c2cccc(F)c2)CCN1Cc1ccc(O)cc1O` (racemic) [Example 9, Racemic (5R,7S),(5S,7R)-8-(2,4-dihydroxybenzyl)-1-(3-fluorophenyl)-7-methyl-1,8-diazaspiro[4.5]dec-3-en-2-one] yielded a 50% inhibitory concentration (IC50) of 100 to 300 µM.

`CC1CC2(CCC(=O)N2c2cccc(F)c2)CCN1Cc1ccc(O)c(Cl)c1` (racemic) [Example 44, Racemic (5R,7S),(5S,7R)-8-(3-chloro-4-hydroxybenzyl)-1-(3-fluorophenyl)-7-methyl-1,8-diazaspiro[4.5]decan-2-one] showed a 50% inhibitory concentration (IC50) of 10 to 100 µM.

`Cc1ccsc1-c1cc(CN2CC[C@]3(CCC(=O)N3c3cccc(F)c3)C[C@@H]2C)ccc1O` [#217] returned an IC50 of 1 to 10 µM.

`CC1CC2(CCC(=O)N2c2cccc(F)c2)CCN1Cc1cccc(OCc2nc(C3CC3)no2)c1` (racemic) [Example 86, Racemic (5R,7S),(5S,7R)-8-{3-[(3-cyclopropyl-1,2,4-oxadiazol-5-yl)methoxy]benzyl}-1-(3-fluorophenyl)-7-methyl-1,8-diazaspiro[4.5]decan-2-one] registered a concentration for half-maximal inhibition (IC50) of 100 to 300 µM. `COc1ccc(F)c(CN2CCC3(CCC(=O)N3c3cccc(F)c3)CC2C)c1` (racemic) [Example 43, Racemic (5R,7S),(5S,7R)-8-(2-fluoro-5-methoxybenzyl)-1-(3-fluorophenyl)-7-methyl-1,8-diazaspiro[4.5]decan-2-one] came in with an IC50 of 100 to 300 µM. `CC1CC2(C=CC(=O)N2c2cccc(F)c2)CCN1Cc1cccc(-n2cccn2)c1` (racemic) [Example 64, Racemic (5R,7S),(5S,7R)-1-(3-fluorophenyl)-7-methyl-8-[3-(1H-pyrazol-1-yl)benzyl]-1,8-diazaspiro[4.5]dec-3-en-2-one]: the concentration for half-maximal inhibition (IC50) fell in the range of 10 to 100 µM. `CC(=O)Nc1ccc(CN2CCC3(C=CC(=O)N3c3cccc(F)c3)CC2C)cc1` (racemic) [Example 59, Racemic N-(4-{[(5R,7S),(5S,7R)-1-(3-fluorophenyl)-7-methyl-2-oxo-1,8-diazaspiro[4.5]-3-en 8-yl]methyl}phenyl)acetamide] showed an IC50 of 1 to 10 µM. Turning to `CC(C)Oc1cccc(CN2CC[C@@]3(C[C@@H]2C)CC(F)(F)C(=O)N3c2cccc(F)c2)c1` (racemic) [Example 91, Racemic (5R,7S)(5S,7R)˜3,3˜difluoro˜1˜(3˜fluorophenyl)˜8˜(3˜isopropoxybenzyl)˜7˜methyl˜1,8˜diazaspiro[4.5]decan˜2˜one, formate salt], the IC50 lay within 10 to 100 µM. Take `CC(C)COc1cccc(CN2CCC3(CCC(=O)N3c3cccc(F)c3)CC2C)c1` (racemic) [Example 48, Racemic (5R,7S),(5S,7R)-1-(3-fluorophenyl)-8-(3-isobutoxybenzyl)-7-methyl-1,8-diazaspiro[4.5]decan-2-one]: the IC50 was 100 to 300 µM.
